Experimental data published in ChEMBL document CHEMBL3627616, “New multifunctional melatonin-derived benzylpyridinium bromides with potent cholinergic, antioxidant, and neuroprotective properties as innovative drugs for Alzheimer's disease” (Eur J Med Chem, 2015).
Activity calls are given as the source filed them. No cut-off for these calls is given here.

Tests used:
Acetylcholinesterase [1] = target: T1, Acetylcholinesterase (Homo sapiens, UniProt P22303); experiment: Inhibition of human recombinant AChE using acetylthiocholine iodide as substrate preincubated for 5 mins followed by substrate addition by Ellman's method
T1 sequence (P22303 whole entry): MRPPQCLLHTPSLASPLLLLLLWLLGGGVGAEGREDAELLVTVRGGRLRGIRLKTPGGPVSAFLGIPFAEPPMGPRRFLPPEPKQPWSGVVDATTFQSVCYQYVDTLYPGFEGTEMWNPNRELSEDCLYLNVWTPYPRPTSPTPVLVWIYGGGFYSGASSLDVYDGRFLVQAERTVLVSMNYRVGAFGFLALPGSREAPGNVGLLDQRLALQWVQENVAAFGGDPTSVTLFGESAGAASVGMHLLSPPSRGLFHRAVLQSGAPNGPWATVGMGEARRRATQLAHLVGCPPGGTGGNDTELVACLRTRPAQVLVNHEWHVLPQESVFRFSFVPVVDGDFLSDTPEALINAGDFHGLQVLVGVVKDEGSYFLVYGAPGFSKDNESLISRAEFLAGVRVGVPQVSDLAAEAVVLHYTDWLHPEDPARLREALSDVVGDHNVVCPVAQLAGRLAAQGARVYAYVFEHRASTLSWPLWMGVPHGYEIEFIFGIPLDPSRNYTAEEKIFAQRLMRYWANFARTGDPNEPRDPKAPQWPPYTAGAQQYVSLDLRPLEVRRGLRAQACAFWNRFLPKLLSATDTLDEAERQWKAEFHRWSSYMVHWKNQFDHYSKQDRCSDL

Homo sapiens = organism: Homo sapiens; experiment: Selectivity ratio of IC50 for human serum BuChE to IC50 for human recombinant AChE
[2] = Antioxidant activity assessed as trolox equivalent of AAPH radical scavenging activity preincubated for 15 mins followed by addition of AAPH solution measured for 80 mins by ORAC-FL method; format: physicochemical
Cholinesterase = Cholinesterase (Homo sapiens, UniProt P06276)
Sequence of Cholinesterase (P06276 whole entry): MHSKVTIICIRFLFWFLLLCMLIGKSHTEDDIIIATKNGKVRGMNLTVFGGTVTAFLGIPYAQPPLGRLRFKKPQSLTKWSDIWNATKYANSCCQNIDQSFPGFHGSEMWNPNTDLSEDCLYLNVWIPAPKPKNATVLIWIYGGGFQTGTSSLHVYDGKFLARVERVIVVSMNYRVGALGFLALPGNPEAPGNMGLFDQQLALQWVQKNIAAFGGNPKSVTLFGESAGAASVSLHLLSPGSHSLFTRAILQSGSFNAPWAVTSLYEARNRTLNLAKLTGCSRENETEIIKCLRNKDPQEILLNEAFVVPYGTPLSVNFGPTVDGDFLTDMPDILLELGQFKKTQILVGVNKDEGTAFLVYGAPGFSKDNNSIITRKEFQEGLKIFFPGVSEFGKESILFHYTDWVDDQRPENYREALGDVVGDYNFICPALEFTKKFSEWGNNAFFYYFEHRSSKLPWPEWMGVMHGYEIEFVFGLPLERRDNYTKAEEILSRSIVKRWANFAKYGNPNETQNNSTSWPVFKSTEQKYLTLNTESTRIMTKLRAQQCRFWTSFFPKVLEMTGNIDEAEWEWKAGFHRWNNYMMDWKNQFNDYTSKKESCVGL
Description: Inhibition of human serum BuChE using S-butyrylthiocholine iodide as substrate preincubated for 5 mins followed by substrate addition by Ellman's method

Acetylcholinesterase [3] = target: T1, Acetylcholinesterase; experiment: Potency index, ratio of IC50 for donepezil to IC50 for test compound for inhibition of human recombinant AChE
SH-SY5Y [4] = experiment: Cytotoxicity against human SH-SY5Y cells assessed as cell survival at 1 to 50 uM after 24 hrs by MTT assay; format: cell-based
SH-SY5Y [5] = experiment: Neuroprotective activity against H2O2-induced oxidative stress-associated death in human SH-SY5Y cells assessed as increase in cell viability at 1 to 10 uM incubated for 24 hrs prior to H2O2 challenge measured after 24 hrs by MTT assay; format: functional, cell-based
Acetylcholinesterase [6] = target: T1, Acetylcholinesterase; settings: 0.05 to 0.2 uM
SH-SY5Y [7] = experiment: Neuroprotective activity against H2O2-induced oxidative stress-associated death in human SH-SY5Y cells assessed as increase in cell viability at 10 uM incubated for 24 hrs prior to H2O2 challenge measured after 24 hrs by MTT assay; format: functional, cell-based
[8] = Antioxidant activity assessed as trolox equivalent of AAPH radical scavenging activity; format: physicochemical

SMILES | IC50 (Acetylcholinesterase [1]) | Ratio IC50 (Homo sapiens) | Activity [2] | IC50 (Cholinesterase) | Ratio IC50 (Acetylcholinesterase [3]) | Activity (SH-SY5Y [4]) | Activity (SH-SY5Y [5]) | inhibition (Acetylcholinesterase [6]) | Activity (SH-SY5Y [7]) | Activity [8]
N#Cc1ccc(C[n+]2ccc(C(=O)NCCc3c[nH]c4ccccc34)cc2)cc1.[Br-] | 22.9 µM | > 4.4 | 1.56 umolequiv/umol |  |  |  |  |  |  | 
COc1ccc2[nH]cc(CCNC(=O)/C=C/c3cc[n+](Cc4ccc(F)cc4)cc3)c2c1.[Br-] | 0.21 µM | 3.4 | 3.51 umolequiv/umol | 0.71 µM |  |  |  |  |  | 
O=C(NCCc1c[nH]c2ccccc12)c1ccc[n+](Cc2ccccc2)c1.[Br-] | 30.5 µM | 0.009 | 1.49 umolequiv/umol | 0.28 µM |  |  |  |  |  | 
Cc1ccc(C[n+]2ccc(C(=O)NCCc3c[nH]c4ccccc34)cc2)cc1.[Br-] | 5.7 µM | 1.6 | 1.72 umolequiv/umol | 8.9 µM |  |  |  |  |  | 
O=C(NCCc1c[nH]c2ccccc12)c1cc[n+](Cc2cccc(F)c2)cc1.[Br-] | 3.9 µM | 1.3 | 1.41 umolequiv/umol | 5.1 µM |  |  |  |  |  | 
COc1ccc2[nH]cc(CCNC(=O)c3cc[n+](Cc4ccc(OC(=O)N(C)C)cc4)cc3)c2c1.[Br-] | 1.3 µM | 0.06 | 2.04 umolequiv/umol | 0.08 µM | 70 | Non-toxic | Active |  |  | 
O=C(NCCc1c[nH]c2ccccc12)c1ccc[n+](Cc2ccccc2F)c1.[Br-] | 28.6 µM | 0.01 | 1.47 umolequiv/umol | 0.34 µM |  |  |  |  |  | 
COc1ccc2[nH]cc(CCNC(=O)CCc3cc[n+](Cc4ccccc4F)cc3)c2c1.[Br-] | 0.53 µM | 1.6 | 2.51 umolequiv/umol | 0.86 µM |  |  |  |  |  | 
COc1ccc2[nH]cc(CCNC(=O)/C=C/c3cc[n+](Cc4ccccc4F)cc3)c2c1.[Br-] | 0.26 µM | 8.8 | 3.66 umolequiv/umol | 2.3 µM |  |  |  |  |  | 
COc1ccc2[nH]cc(CCNC(=O)CCc3cc[n+](Cc4ccc(F)cc4)cc3)c2c1.[Br-] | 0.58 µM | 1.1 | 2.49 umolequiv/umol | 0.65 µM |  |  |  |  |  | 
O=C(NCCc1c[nH]c2ccccc12)c1cc[n+](Cc2ccccc2)cc1.[Br-] | 4.2 µM | 0.67 | 1.29 umolequiv/umol | 2.8 µM |  |  |  |  |  | 
COc1ccc2[nH]cc(CCNC(=O)c3cc[n+](Cc4ccc(F)cc4)cc3)c2c1.[Br-] | 5.1 µM | 1.5 | 2.09 umolequiv/umol | 7.5 µM |  |  |  |  |  | 
COc1ccc2[nH]cc(CCNC(=O)c3cc[n+](Cc4ccccc4F)cc3)c2c1.[Br-] | 3.3 µM | 2.1 | 2.02 umolequiv/umol | 6.8 µM |  |  |  |  |  | 
O=C(NCCc1c[nH]c2ccccc12)c1cc[n+](Cc2ccc(F)cc2)cc1.[Br-] | 3.4 µM | 1.4 | 1.32 umolequiv/umol | 4.8 µM |  |  |  |  |  | 
Cc1cccc(C[n+]2ccc(C(=O)NCCc3c[nH]c4ccccc34)cc2)c1.[Br-] | 2.7 µM | 2.1 | 1.36 umolequiv/umol | 5.8 µM |  |  |  |  |  | 
COc1ccc2[nH]cc(CCNC(=O)/C=C/c3cc[n+](Cc4cccc(F)c4)cc3)c2c1.[Br-] | 0.11 µM | 10 | 3.41 umolequiv/umol | 1.1 µM |  | Non-toxic | Active | Active |  | 
O=C(NCCc1c[nH]c2ccccc12)c1cc[n+](Cc2ccccc2F)cc1.[Br-] | 3.2 µM | 1.3 | 1.14 umolequiv/umol | 4.1 µM |  |  |  |  |  | 
COc1ccc2[nH]cc(CCNC(=O)CCc3cc[n+](Cc4cccc(F)c4)cc3)c2c1.[Br-] | 0.44 µM | 1.6 | 2.45 umolequiv/umol | 0.72 µM |  |  |  |  |  | 
COc1ccc2[nH]cc(CCNC(=O)c3cc[n+](Cc4cccc(F)c4)cc3)c2c1.[Br-] | 3.8 µM | 2.1 | 1.87 umolequiv/umol | 7.9 µM |  |  |  |  |  | 
COc1ccc2[nH]cc(CCNC(C)=O)c2c1 [MELATONIN] |  |  | 2.34 umolequiv/umol |  |  |  |  |  | Active | 2 umolequiv/umol
